Holding throughout (format): cell-based
For test [1], the system named is E. faecalis (ATCC 29212). As to the kind of experiment: Antibacterial susceptibility testing (MIC, broth microdilution or agar dilution), E. faecalis. Particulars: Enterococcus faecalis, ATCC29212; read-out: E. faecalis (ATCC 29212) minimal inhibitory concentration (MIC). In short, it runs like this:
(§1)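 MICs by CLSI (M7-A7) broth microdilution or agar dilution, against reference ATCC strains as listed.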

The subject of test [2] is H. influenzae (ATCC 49247). As to the kind of experiment: Antibacterial susceptibility testing (MIC, broth microdilution or agar dilution), H. influenzae. Particulars: Haemophilus influenzae, ATCC49247; read-out: H. influenzae (ATCC 49247) minimal inhibitory concentration (MIC). How it is done: Compounds of the invention were tested for antimicrobial activity by susceptibility testing in liquid or on solid media. MICs for compounds against each strain were determined by the broth microdilution or agar dilution method according to the guidelines of the Clinical Laboratories and Standards Institute, formerly the National Committee for Clinical Laboratory Standards (Clinical Laboratories and Standards Institute. Methods for Dilution Antimicrobial Susceptibility Tests for Bacteria That Grow Aerobically; Approved Standard—Seventh Edition. Document M7-A7. CLSI, Wayne, Pa., 2006; Clinical Laboratories and Standards Institute. The Gram positive bacterial strains tested include S. aureus (Staphylococcus aureus (Isolate ID ATCC 29213)), E. faecalis (Enterococcus faecalis (Isolate ID ATCC 29212)) and S. pyogenes (Streptococcus pyogenes (Isolate ID ATCC 51339)). The Gram negative bacterial strains tested include H. influenzae (Haemophilus influenzae (Isolate ID ATCC 49247)).
A general note: Dilution methods test growth across graded concentrations, often in twofold steps.

Test [3] has as its system S. aureus (ATCC 29213). As to the kind of experiment: Antibacterial susceptibility testing (MIC, broth microdilution or agar dilution), S. aureus. The conditions noted are these: Staphylococcus aureus, ATCC29213; read-out: S. aureus (ATCC 29213) minimal inhibitory concentration (MIC). In short, it runs like this:
as §1

The subject of test [4] is S. pyogenes (ATCC 51339). As to the kind of experiment: Antibacterial susceptibility testing (MIC, broth microdilution or agar dilution), S. pyogenes. Particulars: Streptococcus pyogenes, ATCC51339; read-out: S. pyogenes (ATCC 51339) minimal inhibitory concentration (MIC). In short, it runs like this:
as §1

The results in this text go back to patent US9060515B2, “Heterocyclic urea compounds” (BIOTA EUROPE LTD, priority 2011, dated 2015).

Converted amounts (≈) assume the structure as drawn.

With `CCNC(=O)Nc1cc(Nc2ccc(C#N)cc2)c(C(=O)Nc2ccc(CC(C)(C)C(=O)O)cc2)cn1` [Compound 188, 3-{4-[({4-[(4-cyanophenyl)amino]-6-[(ethylcarbamoyl)amino]pyridin-3-yl}carbonyl)amino]phenyl}-2,2-dimethylpropanoic acid], the MIC in test [1], in test [2], in test [3] and in test [4] was ≤ 1 µg/mL throughout.
As for `CCNC(=O)Nc1cc(Nc2ccc(F)c(F)c2)c(C(=O)Nc2ccc(CCC(=O)O)cc2)cn1` [Compound 220, 3-{4-[({4-[(3,4-difluorophenyl)amino]-6-[(ethylcarbamoyl)amino]pyridin-3-yl}carbonyl)amino]phenyl}propanoic acid], the MIC in test [1], in test [2], in test [3] and in test [4] was ≤ 1 µg/mL throughout.
With `CCNC(=O)Nc1cc(Nc2cc(F)cc(F)c2)c(C(=O)Nc2ccc(CCC(=O)O)cc2)cn1` [Compound 235, 3-{4-[({4-[(3,5-difluorophenyl)amino]-6-[(ethylcarbamoyl)amino]pyridin-3-yl}carbonyl)amino]phenyl}propanoic acid], the MIC was ≤ 1 µg/mL in test [1], 4 µg/mL (≈ 8.27 µM) in test [2], ≤ 1 µg/mL in test [3] and ≤ 1 µg/mL in test [4].
With `CCNC(=O)Nc1cc(Nc2cc(F)c(F)c(F)c2)c(C(=O)Nc2ccc(CCC(=O)O)cc2)cn1` [Compound 189], the MIC in test [1], in test [2], in test [3] and in test [4] was ≤ 1 µg/mL throughout.
For the molecule `CCNC(=O)Nc1cc(Nc2cccc(F)c2)c(C(=O)Nc2ccc(CCC(=O)O)cc2)cn1` [Compound 221, 3-{4-[({6-[(ethylcarbamoyl)amino]-4-[(3-fluorophenyl)amino]pyridin-3-yl}carbonyl)amino]phenyl}propanoic acid], the MIC in test [1], in test [2], in test [3] and in test [4] was ≤ 1 µg/mL each time.
In the case of `CCNC(=O)Nc1cc(Nc2cccc(F)c2)c(C(=O)Nc2ccc(CC(C)(C)C(=O)O)cc2)cn1` [Compound 181, 3-{4-[({6-[(ethylcarbamoyl)amino]-4-[(3-fluorophenyl)amino]pyridin-3-yl}carbonyl)amino]phenyl}-2,2-dimethylpropanoic acid], the MIC in test [1], in test [2], in test [3] and in test [4] was ≤ 1 µg/mL throughout.
`CCNC(=O)Nc1cc(Nc2cc(Cl)cc(Cl)c2)c(C(=O)Nc2ccc(CCC(=O)O)cc2)cn1` [Compound 228, 3-{4-[({4-[(3,5-dichlorophenyl)amino]-6-[(ethylcarbamoyl)amino]pyridin-3-yl}carbonyl)amino]phenyl}propanoic acid]: the MIC in test [1], in test [2], in test [3] and in test [4] was ≤ 1 µg/mL each time.
Turning to `CCNC(=O)Nc1cc(Nc2ccc(Cl)cc2F)c(C(=O)Nc2ccc(CCC(=O)O)cc2)cn1` [Compound 224, 3-{4-[({4-[(4-chloro-2-fluorophenyl)amino]-6-[(ethylcarbamoyl)amino]pyridin-3-yl}carbonyl)amino]phenyl} propanoic acid], the MIC in test [1], in test [2], in test [3] and in test [4] was ≤ 1 µg/mL throughout.
Take `CCNC(=O)Nc1cc(Nc2cncc(F)c2)c(C(=O)Nc2ccc(CCC(=O)O)cc2)cn1` [Compound 236]: the MIC was ≤ 1 µg/mL in test [1], 4 µg/mL (≈ 8.57 µM) in test [2] and 4 µg/mL (≈ 8.57 µM) in test [3].
As for `CCNC(=O)Nc1cc(Nc2ccc(F)cc2F)c(C(=O)Nc2ccc(CCC(=O)O)cc2)cn1` [Compound 230, 3-{4-[({4-[(2,4-difluorophenyl)amino]-6-[(ethylcarbamoyl)amino]pyridin-3-yl}carbonyl)amino]phenyl}propanoic acid], the MIC in test [1], in test [2] and in test [3] was ≤ 1 µg/mL in each case.
For `CCNC(=O)Nc1cc(Nc2ccc(C(=O)OC)cc2)c(C(=O)Nc2ccc(CC(C)(C)C(=O)O)cc2)cn1` [Compound 196], the MIC in test [1], in test [2], in test [3] and in test [4] was ≤ 1 µg/mL in each case.
For the molecule `CCNC(=O)Nc1cc(Nc2cc(F)cc(F)c2)c(C(=O)Nc2ccc(CC(C)(C)C(=O)O)cc2)cn1` [Compound 239, 3-{4-[({4-[(3,5-difluorophenyl)amino]-6-[(ethylcarbamoyl)amino]pyridin-3-yl}carbonyl)amino]phenyl}-2,2-dimethyl propanoic acid], the MIC in test [1], in test [2] and in test [3] was ≤ 1 µg/mL each time.
`CCNC(=O)Nc1cc(Nc2ccc(F)c(Cl)c2)c(C(=O)Nc2ccc(CCC(=O)O)cc2)cn1` [Compound 229, 3-{4-[({4-[(3-chloro-4-fluorophenyl)amino]-6-[(ethylcarbamoyl)amino]pyridin-3-yl}carbonyl)amino]phenyl}propanoic acid]: the MIC in test [1], in test [2], in test [3] and in test [4] was ≤ 1 µg/mL throughout.
On to `CCNC(=O)Nc1cc(Nc2ccc(F)c(C)c2)c(C(=O)Nc2ccc(CCC(=O)O)cc2)cn1` [Compound 223, 3-{4-[({6-[(ethylcarbamoyl)amino]-4-[(4-fluoro-3-methylphenyl)amino]pyridin-3-yl}carbonyl)amino]phenyl}propanoic acid], for which the MIC in test [1], in test [2] and in test [3] was ≤ 1 µg/mL each time.
